Source: patent US10350199B2, “3-(1h-pyrrolo[2,3-b]pyridin-2-yl)-1h-indazoles and therapeutic uses thereof” (Samumed, LLC, priority 2015, dated 2019)

Experiments:
Type in all cases: cell-based
[1] = test system: Wnt activity (Sp5-Luc reporter, SW480 colon carcinoma cells); assay: Wnt activity screening assay, Sp5-Luc reporter gene in SW480 cells; details: Homo sapiens; for inhibition at 10 µM: SW480, read-out: percent inhibition at 10 μM; for EC50: Sp5-Luc reporter, SW480 cells, overnight incubation
Excerpt: The screening assay for Wnt activity is described as follows. Reporter cell lines can be generated by stably transducing cancer cell lines (e.g., colon cancer) or primary cells (e.g., IEC-6 intestinal cells) with a lentiviral construct that includes a Wnt-responsive promoter driving expression of the firefly luciferase gene.
SW480 colon carcinoma cells were transduced with a lentiviral vector expressing luciferase with a human Sp5 promoter consisting of a sequence of eight TCF/LEF binding sites. SW480 cells stably expressing the Sp5-Luc reporter gene and a hygromycin resistance gene were selected by treatment with 150 μg/mL of hygromycin for 7 days. These stably transduced SW480 cells were expanded in cell culture and used for all further screening activities. […] For Sp5-Luc reporter gene assays, the cells were plated at 4,000 cells/well in 384-well plates with medium containing 1% fetal bovine serum and incubated overnight at 37° C. and 5% CO2. Following incubation, 20 μl of BrightGlo luminescence reagent (Promega) was added to each well of the 384-well assay plates. The plates were placed on an orbital shaker for 2 min and then luminescence was quantified using the Envision (Perkin Elmer) plate reader. Readings were normalized to DMSO only treated cells, and normalized activities were utilized for EC50 calculations using the dose-response log (inhibitor) vs. response -variable slope (four parameters) nonlinear regression feature available in GraphPad Prism 5.0 (or Dotmatics).

SW480 colon cancer cells = assay: Cell viability assay (CellTiter-Blue), SW480 cells, four days; details: Homo sapiens; for EC50: 96 h, SW480 cell viability, four days, CellTiter-Blue; for inhibition at 10 µM: SW480, read-out: percent inhibition at 10 μM
Protocol: Representative compounds were screened using the following assay procedure to assess the effect on cell viability as described below.
Approximately 2×10^3 SW480 colon cancer cells were seeded into each well and allowed to incubate in the presence or absence of compound for four days at 37° C./5% CO2. Eight replicates of DMSO-treated cells served as controls and cells treated with compound were performed in duplicate.
After incubation, 20 μL of CellTiter-Blue (Promega) was added to each well allowed to incubate for approximately 3 hours. This reagent was a buffered solution which contains resazurin, metabolically active cells were able to reduce rezarurin (blue) into resorufin (pink) which was highly fluorescent. This measured fluorescence was used as a readout for cell viability.

[2] = test system: primary human fibroblasts derived from IPF patients (LL29 cells) treated with TGF-β1; assay: Inhibition of the fibrotic process: αSMA staining in TGF-β1 treated LL29 fibroblasts; details: Fibroblast; for EC50: 96 h, LL29 cells, TGF-β1 20 ng/mL, 4 days, % αSMA positive cells; for inhibition at 10 µM: read-out: percent inhibition at 10 μM
Protocol: Representative compounds were screened using primary human fibroblasts (derived from IPF patients) treated with TGF-β1 to determine their ability to inhibit the fibrotic process.
LL29 cells are plated at 1,500 cells/well in 80 μL/well F12 medium supplemented with 1% Fetal Bovine Serum. […] Wells treated with TGF-β1 and containing DMSO were used as controls. […] Following incubation for 4 days, SYTOX green nucleic acid stain (Life Technologies [Thermo Fisher Scientific]) was added to the wells at a final concentration of 1 μM and incubated at room temperature for 30 min.

[3] = test system: IL-6 (THP-1 human monocyte cell line); assay: IL-6 inhibition in LPS-stimulated THP-1 cells (HTRF); details: for EC50: IL-6 inhibition, LPS-stimulated THP-1 cells, HTRF; for inhibition at 10 µM: THP-1, read-out: percentage in parentheses beside EC50 >10 (IL-6 inhibition)
Protocol: THP-1 cells were cultured in basal media with 1% FBS for 24 hours before the start of the assay. […] THP-1 cells were plated at 5000 cells/well in the 384-well plates and incubated at 37° C. for 2 h. 500 ng/mL of LPS was added after 2 hours and cells were incubated for another 22 hours at 37° C. Plates were spun in a centrifuge for 1 minute at […] and a mixture of anti-IL6 XL665, and anti-IL6 Cryptate diluted in reconstitution buffer (Cisbio Inc.) was added to each well. Following incubation for 3 hrs at room temperature, Homogeneous Time-Resolved Fluorescence (HTRF) was measured using the Envision (Perkin Elmer) at 665 nm and […]. The ratio of fluorescence at 665 nm to 620 nm was used as a readout for IL6 quantification. All samples were processed in duplicate. Readings were normalized to DMSO treated cells and normalized activities were utilized for EC50 calculations using the dose-response log (inhibitor) vs. response -variable slope (four parameters) nonlinear regression feature available in GraphPad Prism 5.0 (or Dotmatics).

SMILES | EC50 [1] | EC50 (SW480 colon cancer cells) | EC50 [3] | inhibition at 10 µM [1] | inhibition at 10 µM (SW480 colon cancer cells) | EC50 [2] | inhibition at 10 µM [2] | inhibition at 10 µM [3]
CC(C)C(=O)Nc1cncc(-c2ccc3[nH]nc(-c4cc5c(-c6ccccc6F)ccnc5[nH]4)c3c2)c1 [Compound 65, N-(5-(3-(4-(2-Fluorophenyl)-1H-pyrrolo[2,3-b]pyridin-2-yl)-1H-indazol-5-yl)pyridin-3-yl)isobutyramide] | > 10 µM | > 10 µM | > 10 µM | 30.5% | 10.8% | > 10 µM | 11.7% | 34.9%
O=C(Cc1ccccc1)Nc1cncc(-c2ccc3[nH]nc(-c4cc5c(N6CCCCC6)ccnc5[nH]4)c3c2)c1 [Compound 178, 2-Phenyl-N-(5-(3-(4-(piperidin-1-yl)-1H-pyrrolo[2,3-b]pyridin-2-yl)-1H-indazol-5-yl)pyridin-3-yl)acetamide] | > 10 µM | > 10 µM | > 10 µM | 13.8% | 18.7% | > 10 µM | 0% | 36.5%
c1cc(N2CCCCC2)c2cc(-c3n[nH]c4ccc(-c5cncc(OC6CCCCC6)c5)cc34)[nH]c2n1 [Compound 607, 5-(5-(Cyclohexyloxy)pyridin-3-yl)-3-(4-(piperidin-1-yl)-1H-pyrrolo[2,3-b]pyridin-2-yl)-1H-indazole] | > 10 µM | 8.58 µM | > 10 µM | 28.4% | – | 7.1 µM | – | 20%
Fc1ccc(-c2ccnc3[nH]c(-c4n[nH]c5ccc(C6=CCNCC6)cc45)cc23)cc1 [Compound 522, 3-(4-(4-Fluorophenyl)-1H-pyrrolo[2,3-b]pyridin-2-yl)-5-(1,2,3,6-tetrahydropyridin-4-yl)-1H-indazole] | 3.25 µM | > 10 µM | > 10 µM | – | 19.2% | 3.86 µM | – | 48.7%
CC(C)(C)CC(=O)Nc1cncc(-c2ccc3[nH]nc(-c4cc5c(-c6ccccc6F)ccnc5[nH]4)c3c2)c1 [Compound 72, N-(5-(3-(4-(2-Fluorophenyl)-1H-pyrrolo[2,3-b]pyridin-2-yl)-1H-indazol-5-yl)pyridin-3-yl)-3,3-dimethylbutanamide] | > 10 µM | > 10 µM | > 10 µM | 9.3% | 12.6% | > 10 µM | 5.4% | 10.5%
O=C(Nc1cncc(-c2ccc3[nH]nc(-c4cc5c(-c6ccc(F)cc6)ccnc5[nH]4)c3c2)c1)C1CCC1 [Compound 49, N-(5-(3-(4-(4-Fluorophenyl)-1H-pyrrolo[2,3-b]pyridin-2-yl)-1H-indazol-5-yl)pyridin-3-yl)cyclobutanecarboxamide] | > 10 µM | > 10 µM | > 10 µM | 10.6% | 11.8% | > 10 µM | 3.2% | 29.6%
CC(C)CC(=O)Nc1cncc(-c2ccc3[nH]nc(-c4cc5c(-c6ccc(F)cc6)ccnc5[nH]4)c3c2)c1 [Compound 30, N-(5-(3-(4-(4-Fluorophenyl)-1H-pyrrolo[2,3-b]pyridin-2-yl)-1H-indazol-5-yl)pyridin-3-yl)-3-methylbutanamide] | > 10 µM | > 10 µM | > 10 µM | 13.6% | 14.9% | > 10 µM | 20.2% | 25.3%
O=C(Nc1cncc(-c2ccc3[nH]nc(-c4cc5c(N6CCCCC6)ccnc5[nH]4)c3c2)c1)C1CC1 [Compound 188, N-(5-(3-(4-(Piperidin-1-yl)-1H-pyrrolo[2,3-b]pyridin-2-yl)-1H-indazol-5-yl)pyridin-3-yl)cyclopropanecarboxamide] | > 10 µM | > 10 µM | > 10 µM | 27.6% | 12.9% | > 10 µM | 17.4% | 4.1%
CCCCC(=O)Nc1cncc(-c2ccc3[nH]nc(-c4cc5c(-c6ccccc6F)ccnc5[nH]4)c3c2)c1 [Compound 75, N-(5-(3-(4-(2-Fluorophenyl)-1H-pyrrolo[2,3-b]pyridin-2-yl)-1H-indazol-5-yl)pyridin-3-yl)pentanamide] | > 10 µM | > 10 µM | > 10 µM | 13% | 16.8% | > 10 µM | 29.1% | 38.2%

Now from value to compound, other results behind:

EC50 [1] | EC50 (SW480 colon cancer cells) | EC50 [3] | SMILES | inhibition at 10 µM [1] | inhibition at 10 µM (SW480 colon cancer cells) | EC50 [2] | inhibition at 10 µM [2] | inhibition at 10 µM [3]
> 10 µM | > 10 µM | 0.285 µM | Fc1cccc(-c2ccnc3[nH]c(-c4n[nH]c5ccc(-c6cncc(CN7CCC(F)(F)C7)c6)cc45)cc23)c1 [Compound 26, 5-(5-((3,3-Difluoropyrrolidin-1-yl)methyl)pyridin-3-yl)-3-(4-(3-fluorophenyl)-1H-pyrrolo[2,3-b]pyridin-2-yl)-1H-indazole] | 49% | 40.6% | 1.96 µM | – | –
> 10 µM | > 10 µM | 3.99 µM | CC(C)(C)CC(=O)Nc1cncc(-c2ccc3[nH]nc(-c4cc5c(N6CCCCC6)ccnc5[nH]4)c3c2)c1 [Compound 184, 3,3-Dimethyl-N-(5-(3-(4-(piperidin-1-yl)-1H-pyrrolo[2,3-b]pyridin-2-yl)-1H-indazol-5-yl)pyridin-3-yl)butanamide] | 11.9% | 1.6% | > 10 µM | – | –
4.15 µM | 3.99 µM | > 10 µM | c1cnc(-c2ccc3[nH]nc(-c4cc5c(-c6ccoc6)ccnc5[nH]4)c3c2)cn1 [Compound 696, 3-(4-(Furan-3-yl)-1H-pyrrolo[2,3-b]pyridin-2-yl)-5-(pyrazin-2-yl)-1H-indazole] | – | – | 2.48 µM | – | 43.3%
0.215 µM | 0.606 µM | 0.053 µM | CC(C)(C)C(=O)Nc1cncc(-c2ccc3[nH]nc(-c4cc5c(-c6cccs6)ccnc5[nH]4)c3c2)c1 [Compound 344, N-(5-(3-(4-(Thiophen-2-yl)-1H-pyrrolo[2,3-b]pyridin-2-yl)-1H-indazol-5-yl)pyridin-3-yl)pivalamide] | – | – | > 10 µM | 0% | –
0.04 µM | 1.3 µM | > 10 µM | CCCC(=O)Nc1cncc(-c2ccc3[nH]nc(-c4cc5c(-c6cccs6)ccnc5[nH]4)c3c2)c1 [Compound 353, N-(5-(3-(4-(Thiophen-2-yl)-1H-pyrrolo[2,3-b]pyridin-2-yl)-1H-indazol-5-yl)pyridin-3-yl)butyramide] | – | – | 5.08 µM | – | 37.5%
3.85 µM | 4.64 µM | 0.091 µM | CN(C)Cc1cncc(-c2ccc3[nH]nc(-c4cc5c(-c6cccs6)ccnc5[nH]4)c3c2)c1 [Compound 349, N,N-Dimethyl-1-(5-(3-(4-(thiophen-2-yl)-1H-pyrrolo[2,3-b]pyridin-2-yl)-1H-indazol-5-yl)pyridin-3-yl)methanamine] | – | – | 0.874 µM | – | –
